Measured values reported in patent publication US9169223B2, “Functionalised antifouling compounds and use thereof” (Agency for Science, Technology and Research, priority 2010, dated 2015).
Converted amounts (≈) assume the structure as drawn. Where two headings read alike, the source gives them in different places.

Tests used:
[1] = test system: stage II naupliar larvae of the barnacle Amphibalanus amphitrite; assay: Toxicity assay with barnacle nauplii; format: in vivo
Procedure: (§1) Biological assays were conducted with larval barnacles. Barnacles are dominant and tenacious members of marine fouling communities, and often serve as a substrate for less resistant organisms. Therefore, historically they have been used as a model organism for antifouling studies. To determine the biological response of larvae to test compounds, two bioassays were performed: settlement (using settlement stage cyprids), and toxicity (using nauplii). Procedures followed methods standard in the field, which were first described by Rittschof et al. (1992).
(§2) Stock solutions of each compound were made at 50 mg/ml. Pure compounds were diluted in DMSO and sonicated. Stock solutions were stored at −20° C. in 4 ml amber screw cap vials until use. For bioassays, a small amount of stock solution was diluted in 1 μm filtered seawater (in a glass scintillation vial). The solution was then sonicated for 10 minutes. To obtain the desired concentration range, serial dilutions of the test solution were made. As control, a serial dilution of the equivalent amounts of DMSO in seawater was used.
Toxicity assays employed stage II naupliar larvae of the barnacle Amphibalanus amphitrite (previously Balanus amphitrite: Pitombo, 2004). Assay procedures were modified from Rittschof et al. (1992). Adult A. amphitrite were collected from inter-tidal areas near the Kranji mangrove, Singapore. Larval culture was based on Rittschof et al. (1984). Following collection, nauplii were concentrated for use in bioassays by placing a fiber optic light source at one side of the container, and pipetting from the resulting dense cloud of nauplii.
In order to determine LD50 values for each compound, compounds were tested over a range of concentrations between 0-50 μg/ml. For each assay, each compound at each concentration was tested in triplicate with a single batch of nauplii. The overall assay was conducted twice, using two different batches of nauplii. Two controls were run along with each assay (in triplicate): filtered seawater only, and DMSO at […] (since DMSO was used as a solvent for test compounds, this concentration is equivalent to the concentration of DMSO in the highest test compound concentration).
For assays, approximately 20 nauplii (in 50 μl filtered seawater) were added to 1 ml test solution or control, in a 2 ml glass vial (La Pha Pack® PN 11-14-0544). Assays were run for 22-24 hours at 25-27° C. After this time, living and dead nauplii were counted using a Bogorov tray. Nauplii that were approaching death were scored as dead. Data for all assays was combined and LD50 was calculated (where possible) using a probit analysis (Libermann, 1983). If LD50 could not be calculated using probit analysis, values were extrapolated based on plotted data.

barnacle cyprids = assay: Settlement assay with barnacle cyprids; format: in vivo, Amphibalanus amphitrite; settings: for IC50: Amphibalanus amphitrite, 24 h; for TR (LD50/ED50): therapeutic ratio, LD50 (nauplii) / ED50 (cyprids)
Procedure: as §1, with “nauplii).” for “nauplii). Procedures followed methods standard in the field, which were first described by Rittschof et al. (1992).”
as §2
Nauplii were cultured as described above, and then reared at 25° C. on an algal mixture of 1:1 v/v of Tetraselmis suecica and Chaetoceros muelleri (approximately density 5×10^5 cells per ml). Under these conditions, nauplii typically metamorphose to cyprids in 5 days. Cyprids were aged at 4° C. for 2 days.
Settlement assays were conducted in 7 ml neutral glass vials (Samco® T103/V1; 34×23 mm diameter). For assays, each solution was made at twice the desired final concentration; 0.5 ml of this solution was transferred to vials. To each vial, cyprids were added by transferring 0.5 ml filtered seawater containing 20-40 aged cyprids. As in toxicity assays: each compound at each concentration was run in triplicate with cyprids from a single batch; two controls (filtered seawater and DMSO) were run along with each assays; and the overall assay was conducted twice, using two different batches of cyprids.
Assays were conducted for 24 hours, after which time the number of settled cyprids, the number of free swimming (unsettled) cyprids, and the number of dead cyprids were counted for each vial. Both metamorphosed, juvenile barnacles and cyprids that had committed to settlement (glued themselves to the vial), but had not yet metamorphosed, were counted as ‘settled’. Data was expressed as percent settlement. […] If ED50 could not be calculated using probit analysis, values were extrapolated based on plotted data.

[2] = Amphibalanus amphitrite (barnacle), stage II naupliar larvae, in vivo
[3] = anti-settlement, barnacle cyprids, 24 hours, concentration causing 50% reduction in settlement vs controls, read-out: ED50 (the source's name)
[4] = anti-settlement, barnacle cyprids, 24 hours, concentration causing 50% reduction in settlement vs controls

SMILES | LD50 [1, 2] [µg/mL] | IC50 (barnacle cyprids; [3]) [µg/mL] | TR (LD50/ED50) (barnacle cyprids) | ED50 (barnacle cyprids; [4]) [µg/mL] | LD50 ([1]; toxicity, barnacle nauplii, 22-24 hours, 0-50 μg/ml) [µg/mL] | IC50 (barnacle cyprids; read-out: ED50) [µg/mL]
CCCCC(C(=O)N1CCCCC1)c1ccccc1 (centres unmarked) [Compound 12.1, reference compound] | 9.11 | 1.5 (≈ 5.78 µM) | 6.07 | – | – | –
CCCCC(C(=O)N1CCCCC1)c1ccc(OCC(=O)O)cc1 (centres unmarked) [Compound 16.9, 2-(4-(1-oxo-1-(piperidin-1-yl)hexan-2-yl)phenoxy)acetic acid] | >50 | > 50 | – | – | – | –
CCCCC(C(=O)N(C)C)c1ccc(O)cc1 (centres unmarked) [Compound 17.7, 2-(4-hydroxyphenyl)-N,N-dimethylhexanamide] | >50 | 34.1 (≈ 145 µM) | >1.46 | – | – | –
C=CCCCCC(C(=O)N1CCCCC1)c1ccc(OC)cc1 (centres unmarked) [Compound 17.1, 2-(4-methoxyoxyphenyl)-1-(piperidin-1-yl)oct-7-en-1-one] | 9.27 | 2.37 (≈ 7.51 µM) | 3.91 | – | – | –
CCCCC(C(=O)N1CCCCC1)c1ccc(OC)cc1 (centres unmarked) [Compound 15.1, 2-(4-methoxy)phenyl-(1-piperidin-1-yl)hexanone] | 22.95 | 0.19 (≈ 0.656 µM) | 120.79 | – | – | –
CCCCC(C(=O)N1CCCCC1)c1ccc(O)cc1 (centres unmarked) [Compound 16.5, 2-(4-hydroxyphenyl)-1-(piperidin-1-yl)hexan-1-one] | 17.15 | 0.19 (≈ 0.69 µM) | 90.26 | – | – | –
CCCCC(C(=O)N1CCCCC1)c1ccccc1CO (single isomer, unassigned) [Compound 16.1] | >50 | – | >12.17 | 4.11 (≈ 14.2 µM) | – | –
CCCCC(C(=O)N1CCCCC1)c1cc(OC)ccc1OC (centres unmarked) [Compound 15.5] | 8.66 | 2.16 (≈ 6.76 µM) | 4.01 | – | – | –
CCCCC(C(=O)N1CCCCC1)c1ccc(OCCO)cc1 (centres unmarked) [Compound 16.6, 2-(4-(2-hydroxyethoxy)phenyl)-1-(piperidin-1-yl)hexan-1-one] | >50 | 9.25 (≈ 29 µM) | >5.41 | – | – | –
C=CCCCCC(C(=O)N(C)C)c1ccc(OC)cc1 (centres unmarked) [Compound 17.3, 2-(4-methoxyphenyl)-N,N-dimethyloct-7-enamide] | 18.61 | 2.85 (≈ 10.3 µM) | 6.53 | – | – | –
CCCCC(C(=O)N1CCCCC1)c1ccc(OCCOC(C)=O)cc1 (centres unmarked) [Compound 16.8, 2-(4-(1-oxo-1-(piperidin-1-yl)hexan-2-yl)phenoxy)ethyl acetate] | >50 | 29.1 | 1.72 | – | – | –
CCCCC(C(=O)N1CCCCC1)c1ccccc1OC (centres unmarked) [Compound 15.3] | 3.67 | 2.85 (≈ 9.85 µM) | 1.29 | – | – | –
CCCCC(C(=O)N1CCCCC1)c1ccc(OC(C)=O)cc1 (centres unmarked) [Compound 16.4, 4-(1-oxo-1-(piperidin-1-yl)hexan-2-yl)phenyl acetate] | 27.2 | 0.23 | 118.26 | – | – | –
CCCCC(C(=O)N1CCCCC1)c1cccc(OC)c1 (centres unmarked) [Compound 15.2] | >25 | 1.46 (≈ 5.04 µM) | >17.12 | – | – | –
CCCCC(C(=O)N1CCCCC1)c1ccc(C(=O)O)cc1 (centres unmarked) [Compound 17.9, 4-(1-oxo-1-(piperidin-1-yl)hexan-2-yl)benzoic acid] | >50 | > 50 | 1 | – | – | –
C=CC(=O)Oc1ccc(C(CCCC)C(=O)N2CCCCC2)cc1 (centres unmarked) [Compound 16.11, 4-(1-oxo-1-(piperidin-1-yl)hexan-2-yl)phenyl acrylate] | 6.57 | 1.53 (≈ 4.64 µM) | 4.29 | – | – | –
CCCCC(C(=O)N1CCCCC1)c1cccc(O)c1 (centres unmarked) [Compound 17.5] | 25.14 | 3.44 (≈ 12.5 µM) | 7.31 | – | – | –
CCCCC(C(=O)N1CCCCC1)c1ccc(OC)cc1OC (single isomer, unassigned) [Compound 15.6] | 33.21 | – | 3.64 | 9.12 (≈ 28.5 µM) | – | –
CCCCC(CCCC)C(=O)N1CCCCC1 [Compound 12.2, reference compound] | 9.83 | 2 (≈ 8.35 µM) | 4.92 | – | – | –
C=CCCCCC(C(=O)N(C)C)c1ccc(O)cc1 (centres unmarked) [Compound 17.8, 2-(4-hydroxyphenyl)-N,N-dimethyloct-7-enamide] | 12.46 | 4.29 (≈ 16.4 µM) | 2.90 | – | – | –
CCCCC(C(=O)N1CCCCC1)c1cc(OC)cc(OC)c1 (centres unmarked) [Compound 15.4] | 8.22 | 3.29 (≈ 10.3 µM) | 2.5 | – | – | –
CCCCC(C(=O)N1CCCCC1)c1ccc(OCC[Si](C)(C)C)cc1 (centres unmarked) [Compound 16.10, 1-(piperidin-1-yl)-2-(4-(2-(trimethylsilyl)ethoxy)phenyl)hexan-1-one] | – | – | >14.33 | – | >50 | 3.49 (≈ 9.29 µM)
CCCCC(C(=O)N1CCCCC1)c1ccc(OCC(=O)OC)cc1 (centres unmarked) [Compound 16.7, Methyl 2-(4-(1-oxo-1-(piperidin-1-yl)hexan-2-yl)phenoxy)acetate] | 24.58 | 26.9 (≈ 77.4 µM) | 0.91 | – | – | –
CCCCC(C(=O)N(C)C)c1ccc(OC)cc1 (centres unmarked) [Compound 17.2, 2-(4-methoxyphenyl)-N,N-dimethylhexanamide] | >50 | 8.69 (≈ 34.9 µM) | >5.75 | – | – | –
CCCCC(C(=O)N1CCCCC1)c1ccccc1O (centres unmarked) [Compound 17.4] | 14.62 | 0.65 (≈ 2.36 µM) | 22.49 | – | – | –
C=CCCCCC(C(=O)N1CCCCC1)c1ccc(O)cc1 (centres unmarked) [Compound 17.6, 2-(4-hydroxyphenyl)-1-(piperidin-1-yl)oct-7-en-1-one] | 9.82 | 2.14 (≈ 7.1 µM) | 4.59 | – | – | –
